Marks after values point to notes of the source that are not given here.
What was measured:
[1] = MTT viability assay, normal colonic epithelial cells; type: cell-based, human; conditions: human, CCD 841 CoTr normal colonic epithelial cells, Non-toxic = no toxicity in tested range 1–500 μM, read-out: CC50 ± SD, CCD 841 CoTr
Protocol: (§1) The cytotoxic effects of ten newly synthesized N-Mannich bases were assessed on the normal human intestinal epithelium (CCD 841 CoTr) and cancer cell lines: gastric cancer (EPG) and four colorectal cancer lines (Caco-2, LoVo, LoVo/Dx, and HT-29). Cell viability was evaluated using the MTT assay in accordance with Annex C of ISO 10993-5 [33].
(§2) The biological activity of the newly synthesized compounds was assessed in the context of anticancer activity. For this purpose, several gastrointestinal cancer lines were selected: gastric cancer (EPG 257, which belongs to the collection of the Laboratory of Cell Culture and Advanced Therapy at the University of Environmental and Life Sciences in Wrocław), and four colorectal cancer cell lines (LoVo, Caco-2, and HT-29) were obtained from the European Collection of Authenticated Cell Cultures (ECACC) and were delivered by Sigma-Aldrich, a certified distributor for the biobank. Additionally, LoVo cells were used to develop a doxorubicin-resistant subline, referred to as LoVo/Dx. Resistance was induced through gradual adaptation to increasing concentrations of doxorubicin, starting from 0.1 µg/mL and incrementally raised to 0.8 µg/mL. After reaching the maximum concentration, the cells were maintained in a medium containing 0.4 µg/mL doxorubicin for a period of three months to stabilize the resistant phenotype. […] The resulting LoVo/Dx subline, resistant to doxorubicin, was cultured in DMEM/F-12 medium and utilized in assays evaluating the effectiveness of novel compounds against multidrug-resistant cancer cells. […] The non-cancerous cell control was normal colonic epithelial cells (CCD 841 CoTr from American Type Culture Collection, (ATCC, Manassas, VA, USA)). Cell cultures were performed under standard conditions (5% CO2, 95% humidity, and 37 °C). Each cell line was cultured in the recommended medium: (1) HT-29 in McCoy’s 5a, (2) Caco-2 in Minimal Essential Medium (MEM, Biological Industries, Beit Haemek, Israel), (3) CCD 841 CoTr in Dulbecco’s Modified Eagle Medium (DMEM, Biological Industries, Beit Haemek, Israel), (4) LoVo in Dulbecco’s Modified Eagle Medium/F-12 (DMEM/F-12; Biological Industries, Beit Haemek, Israel), (5) LoVo/Dx in DMEM/F-12, and (6) EPG in DMEM. Culture media were supplemented with 10% fetal bovine serum (FBS, Sigma-Aldrich, Darmstadt, Germany) and antibiotics (penicillin and streptomycin; Sigma-Aldrich, Darmstadt, Germany). For assays, trypsinized (TrypLE solution, Thermo Fisher Scientific, Waltham, MA, USA) cells were seeded at appropriate densities of 10,000 cells per well for MTT and determination of apoptotic and necrotic cell numbers; 30,000 cells per well for the rhodamine accumulation assay; and 500,000 cells per well for ELISA tests.
(§3) The cytotoxicity of the compounds and drugs used as controls was assessed using the MTT assay. The assay also included a DMSO control. After seeding and allowing the cells to adhere overnight, they were treated with the tested compounds and drugs for another 24 h. After this time, the supernatant was removed, and a 1 mg/mL MTT solution was added for 2 h in 5% CO2, 95% humidity, at 37 °C. The supernatant was then removed, and isopropanol was added to dissolve the purple crystals over 30 min by shaking. Absorbance was measured at 570 nm in a Multiskan GO microplate reader (Thermo Fisher Scientific; Waltham, MA, USA). All reagents used for the assays were purchased from Sigma-Aldrich, Darmstadt, Germany.
(§4) Biological assays were performed in three independent replicates, each involving four samples. ELISA determinations were repeated three times.

EPG cells = assay: MTT viability assay, gastric cancer cells; type: cell-based, human; conditions: for SI, EPG: CC50 CCD 841 CoTr / CC50 EPG; for CC50: Homo sapiens, MTT, 24 h, read-out: CC50 ± SD, EPG
Protocol: as §1, §2, §3, §4

Caco-2 cells = assay: MTT viability assay, colorectal cancer cells Caco-2; type: cell-based, human; conditions: for SI, Caco-2: CC50 CCD 841 CoTr / CC50 Caco-2; for CC50: Homo sapiens, Caco-2, MTT, 24 h, read-out: CC50 ± SD, Caco-2
Protocol: as §1, §2, §3, §4

LoVo cells = assay: MTT viability assay, colorectal cancer cells LoVo; type: cell-based, human; conditions: for SI, LoVo: CC50 CCD 841 CoTr / CC50 LoVo; for CC50: Homo sapiens, LoVo, MTT, 24 h, Non-toxic = no toxicity in tested range 1–500 μM, read-out: CC50 ± SD, LoVo
Protocol: as §1, §2, §3, §4

LoVo/Dx cells = assay: MTT viability assay, doxorubicin-resistant LoVo/Dx; type: cell-based, human; conditions: for SI, LoVo/Dx: CC50 CCD 841 CoTr / CC50 LoVo/Dx; for CC50: Homo sapiens, LoVo/DX, MTT, 24 h, read-out: CC50 ± SD, LoVo/Dx
Protocol: as §1, §2, §3, §4

HT-29 cells = assay: MTT viability assay, colorectal cancer cells HT-29; type: cell-based, human; conditions: for SI, HT-29: CC50 CCD 841 CoTr / CC50 HT-29; for CC50: Homo sapiens, HT-29, MTT, 24 h, read-out: CC50 ± SD, HT-29
Protocol: as §1, §2, §3, §4

OVCAR-3 cell line = test system: OVCAR-3 cell line; design: method as in PMID 33482607; conditions: cited from earlier work
CCD 841 CoTr cells = assay: MTT viability assay, normal colonic epithelial cells; type: cell-based, human; conditions: 24 h, Non-toxic = no toxicity in tested range 1–500 μM
Protocol: as §1, §2, §3, §4

HepG2 cells = test system: HepG2 cells; design: method as in PMID 36181443; conditions: cited from earlier work
p53 = p53 Human ELISA on HT-29 cell lysates; type: cell-based; conditions: HT-29, 1 µM, 24 h
Protocol: (§5) To check the effect of compound 6 on the level of p-53 and caspase-3 protein, another test was performed on HT-29 cells, taking doxorubicin as the reference drug.
(§6) To assess the level of caspase-3 and p53 protein, HT-29 cell lysates were used after 24 h of incubation with compounds 5 and 6. The supernatant was collected in the prepared and labeled tubes, the cells from the wells were scraped, and the wells were washed with cold PBS, which was also collected. The tubes were then centrifuged, the supernatant was removed, and the cell pellet was lysed in a cell extraction vessel for 30 min on ice, with […] every 10 min. The lysate was transferred to centrifuge tubes and centrifuged at 13,000 rpm for 10 min at 4 °C. The supernatant was transferred to clean tubes in a microcentrifuge.
(§7) The following kits were used: Human Caspase-3 (active) ELISA Kit (KHO1091) and p53 Human ELISA Kit (BMS256), used following the manufacturer’s instructions. ELISA kits were purchased from Thermo Fisher Scientific (Waltham, MA, USA). The absorbance was measured using a Multiskan GO microplate reader (Thermo Fisher Scientific, Waltham, MA, USA) at wavelengths specific to each kit, as recommended by the manufacturer.

Caspase-3 = assay: Human Caspase-3 (active) ELISA on HT-29 cell lysates; type: cell-based; conditions: HT-29, 1 µM, 24 h
Protocol: as §5, §6, §7

NUGC cell line = test system: NUGC cell line; design: method as in PMID 25948330; conditions: cited from earlier work

SMILES	CC50 at 24 h [1]	SI, EPG (EPG cells)	CC50 (EPG cells)	SI, Caco-2 (Caco-2 cells)	CC50 (Caco-2 cells)	SI, LoVo (LoVo cells)	CC50 (LoVo cells)	SI, LoVo/Dx (LoVo/Dx cells)	CC50 (LoVo/Dx cells)	SI, HT-29 (HT-29 cells)	CC50 (HT-29 cells)	IC50 (OVCAR-3 cell line)	CC50 ± SD, CCD 841 CoTr (CCD 841 CoTr cells)	IC50 (HepG2 cells)	p53 Conc. ± SD (p53)	p53 Fold Change (p53; versus untreated control)	Caspase-3 Conc. ± SD (Caspase-3)	Caspase-3 Fold Change (Caspase-3; versus untreated control)	IC50 (NUGC cell line)
Cc1cc(C)c(C(=O)NCc2nn(CN3CCN(c4ccccc4)CC3)c(=S)n2-c2ccccc2)c(S)n1 [Compound 4]	236 ± 3.5 µM	1.68	141 ± 2.5 µM	1.78	133 ± 2.7 µM	1.18	201 ± 4.6 µM	1.17	201 ± 4.1 µM	1.26	187.6 ± 1.6 µM								
O=C(O)c1cn(C2CC2)c2cc(N3CCN(Cc4c(O)ccc5ccccc45)CC3)c(F)cc2c1=O [V]												0.97 µM							
Cc1cc(C)c(C(=O)NCc2nn(CN3CCN(c4ccc([N+](=O)[O-])cc4)CC3)c(=S)n2C)c(S)n1 [Compound 10, 4,6-dimethyl-N-[(4-methyl-5-thioxo-2-{[4-(4-nitrophenyl)piperazinyl]methyl}-4,5-dihydro-1H-1,2,4-triazol-3-yl)methyl]-2-sulfanylpyridine-3-carboxamide]		>>1 ^c	212 ± 3.7 µM	>>1 ^c	87.2 ± 5.2 µM	>>1 ^c	148 ± 3.7 µM	>>1 ^c	210 ± 3.3 µM	>>1 ^c	176 ± 6.4 µM		Non-toxic ^b						
Cc1cc(C)c(C(=O)NCc2nn(CN3CCN(c4ccc([N+](=O)[O-])cc4)CC3)c(=S)n2C(C)C)c(S)n1 [Compound 13]	436.1 ± 2.7 µM	3.63	120 ± 8.5 µM	2.98	146 ± 3.6 µM	2.26	193 ± 3.7 µM	1.04	419 ± 6.2 µM	1.11	393 ± 7.4 µM								
Nn1c(Sc2c(O)c3ccccc3oc2=O)nnc1-c1ccncc1 [II]														1.93 µM					
Cc1cc(C)c(C(=O)NCc2nn(CN3CCN(c4cccc(Cl)c4)CC3)c(=S)n2C)c(S)n1 [Compound 9, 4,6-dimethyl-N-[(4-methyl-5-thioxo-2-{[4-(3-chlorophenyl)piperazinyl]methyl}-4,5-dihydro-1H-1,2,4-triazol-3-yl)methyl]-2-sulfanylpyridine-3-carboxamide]		>>1 ^c	231 ± 7.1 µM	>>1 ^c	88.6 ± 7.9 µM	>>1 ^c	152 ± 2.7 µM	>>1 ^c	260 ± 4.1 µM	>>1 ^c	253 ± 5.7 µM		Non-toxic ^b						
Cc1ccc(N2CCN(Cn3nc(CNC(=O)c4c(C)cc(C)nc4S)n(C)c3=S)CC2)cc1 [Compound 11]	271 ± 7.1 µM	2.28	119 ± 3.4 µM	4.69	57.7 ± 4.8 µM	1.98	137 ± 5.7 µM	1.06	255 ± 4.8 µM	1.12	242 ± 4.1 µM								
O=c1[nH]cc(F)c(=O)[nH]1 [Compound 5-FU, 5-fluorouracil, reference compound]	61.6 ± 3.7 µM	0.55	111 ± 3.5 µM	0.36	170 ± 3.7 µM	0.85	72.2 ± 1.8 µM	0.27	226 ± 2.7 µM	0.14	428.5 ± 2.7 µM								
COc1cccc2c1C(=O)c1c(O)c3c(c(O)c1C2=O)C[C@@](O)(C(=O)CO)C[C@@H]3O[C@H]1C[C@H](N)[C@H](O)[C@H](C)O1 [Doxorubicin, doxorubicin]															7.62 ± 0.17 U/mL	4.23	0.92 ± 0.23 ng/mL	30.67	
CN1CCN(Cn2nc(-c3ccncc3)n(-c3ccc(Br)cc3)c2=S)CC1 [VIII]																			0.021 µM
Cc1cc(C)c(C(=O)NCc2nn(CN3CCN(c4ccc([N+](=O)[O-])cc4)CC3)c(=S)n2-c2ccccc2)c(S)n1 [Compound 8]		>>1 ^c	142 ± 6.3 µM	>>1 ^c	84.3 ± 6.8 µM	>>1 ^c	178 ± 5.3 µM	>>1 ^c	321 ± 6.8 µM	>>1 ^c	306 ± 4.9 µM		Non-toxic ^b						
Cc1cc(C)c(C(=O)NCc2nn(CN3CCN(c4cccc(Cl)c4)CC3)c(=S)n2C(C)C)c(S)n1 [Compound 12, 4,6-dimethyl-N-[(4-(propan-2-yl)-5-thioxo-2-{[4-(3-chlorophenyl)piperazinyl]-methyl}-4,5-dihydro-1H-1,2,4-triazol-3-yl)methyl]-2-sulfanylpyridine-3-carboxamide]	342.5 ± 3.4 µM	1.30	263 ± 5.7 µM	1.39	247 ± 4.9 µM	0.77	445.9 ± 2.3 µM	0.70	487 ± 5.9 µM	0.73	471.2 ± 3.7 µM								

Source: publication PMC12294558, “New 1,2,4-Triazole Derivatives with a N-Mannich Base Structure Based on a 4,6-Dimethylpyridine Scaffold as Anticancer Agents: Design, Synthesis, Biological Evaluation, and Molecular Modeling” (International Journal of Molecular Sciences, 2025)
